Read-outs that look alike come from different tables or passages of the source. Marks after values point to notes of the source that are not given here.
Assays:
[1] = critical solution temperature vs hexane; prior art minor components discussed in literature; cited from earlier work
[2] = cited from earlier work; for t½: organ retention half life, prior art / nonlipophilic fluorocarbons from literature
[3] = Organ retention time (half life in organs of the reticuloendothelial system)
Description: Traditionally, the molecular weight region from 460-550 g/mol has been considered optimal for blood substitute applications. The lower cutoff is related to the formation of gas emboli for fluorocarbons with vapor pressures greater than 20 torr. The upper cutoff is limited to compounds with organ retention times of less than 3 weeks.
The lower limit is defined by fluorocarbons with vapor pressures greater than 20 torr which causes gas emboli, while the upper limit is defined by fluorocarbons with organ retention times of less than 3 weeks.

[4] = Critical solution temperature (CST) versus hexane; format: physicochemical
Protocol: Critical solution temperature for fluorocarbon liquids was measured in the following manner: Equivolume mixtures of the test fluorocarbon and hydrocarbon (e.g., hexane) are placed in a sealed vial and submerged in a temperature controlled water bath. Samples are cooled until two distinct phases are present. At this point, the temperature is increased slowly. The lowest temperature at which the two phases are completely miscible (i.e., a single liquid phase) is defined as the CST.
For comparison purposes, all CST temperatures used in this patent are reported versus hexane. It is often not possible, however, to measure the CST for lipophilic fluorocarbons versus hexane, since the CSTs for these substances are very low. Thus, the CST for lipophilic substances is often measured in longer chain length hydrocarbons, and the value versus hexane is determined via extrapolation of linear plots of CST vs. alkane chain length.

[5] = vs hexane, estimated from extrapolations of linear plots of CST vs. hydrocarbon chain length

Compound	CSTH [1]	t½ [2]	further results
F-dipiperidinobutane	72 C	1460 days	
FC1(F)OC(F)(F)C(F)(F)N(C(F)(F)C(F)(F)C(F)(F)N2C(F)(F)C(F)(F)OC(F)(F)C2(F)F)C1(F)F [F-dimorpholinopropane]	45 C	50 days	
FC(F)(F)C(F)(F)C(F)(F)C(F)(F)C(F)(F)C(F)(F)Br [F-hexyl bromide, 1-bromotridecafluorohexane]			half-life ([3]; in vivo): 2 days
F-dipipendine	36 C		
F-dip;peridinopropane	56 C	282 days	
FC1(F)OC(F)(F)C(F)(F)N(C(F)(F)C(F)(F)N2C(F)(F)C(F)(F)OC(F)(F)C2(F)F)C1(F)F [F-dimorpholinoethane]	38 C	24 days	
F—N-methylcyclohexylpiperidine	40 C	60 days	
F-dipiperidinoethane	49 C	124 days	
FC1(F)OC(F)(F)C(F)(F)N(C(F)(F)C(F)(F)C(F)(F)C(F)(F)C(F)(F)N2C(F)(F)C(F)(F)OC(F)(F)C2(F)F)C1(F)F [F-dimorpholinopentane]	60 C	280 days	
FC(F)(F)C(F)(F)C(F)(F)C(F)(F)C(F)(F)C(F)(F)C(F)(F)C(F)(F)C(F)(F)C(F)(F)Br [F-decyl bromide, perfluorodecyl bromide]			critical solution temperature compared with prior art stabilizers (in words) ([4]; vs hexane, at comparable molecular weight): dramatically lower; CSTH [4, 5]: (19)^a C; organ half-life versus prescribed cutoff [3]: less than 3 week; organ retention time compared with that predicted from the molecular weight [3]: less than be predicted from the molecular weight; t½ (calculated half life in vivo in organs of the RES) [3]: (18) days; half-life ([3]; t½ (calculated half life in vivo in organs of the RES)): ~18 days
FC1(F)C(F)(F)C(F)(F)C2(F)C(F)(C1(F)F)C(F)(F)C(F)(F)C1(F)C(F)(F)C(F)(F)C(F)(F)C(F)(F)C12F (stereo not drawn) [F-perhydrophenanthrene]	48 C		
F-dipiperidinomethane	42 C	55 days	
FC1(F)C(F)(F)C(F)(F)C2(F)C(F)(F)C(F)(F)C(F)(F)C(F)(F)C2(F)C1(F)F (stereo not drawn) [F-decalin, perfluorodecalin]			CSTH ([4]; critical solution temperature vs hexane, Present Study): 22 C; half-life ([3]; t½): 7 days
FC1(F)OC(F)(F)C(F)(F)N(C2(F)C(F)(F)C(F)(F)C(F)(F)C(F)(F)C2(F)F)C1(F)F [F—N-cyclohexylmorpholine]	31 C	13 days	
FC(F)(F)C(F)(F)C(F)(F)C(F)(F)C(F)(F)C(F)(F)C(F)(F)C(F)(F)Br [F-octyl bromide, perfluorooctyl bromide]			CSTH [4, 5]: (−19)^a C; ratio of half-lives for PFOB/FDC ([2]; used to scale FIG. 6 values): 4/7; organ retention time compared with that predicted from the molecular weight [3]: less than be predicted from the molecular weight; half-life ([3]; t½): 4 days

From patent publication US20020065326A1, “Patient oxygenation using stabilized fluorocarbon emulsions” (priority 1992, published 2002)
